Measurements published in the supplement of paper PMC10307832.

How the values were obtained:
Assay in all cases: relative viability (nuclei count vs DMSO), 5 days (fraction); higher = more cells survive
[1] = test system: NCI-H2347
Method in brief: (§1)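 Lung cancer cell lines were seeded in 1536-well plates and dosed by pin tool the next day, with either a single drug or a fixed anchor-drug dose combined with five library-drug doses (not always all listed) spaced in √10 steps. Five days later, one step fixed the cells and stained their nuclei (final 0.05% Triton X-100, 1% formaldehyde, 1 ug/ml Hoechst), and nuclei were counted on 4× images. Relative viability is the nuclei count in treated wells divided by the count in vehicle wells, and each value is the median of duplicate plates.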

[2] = test system: SW 1573
Method in brief: as §1

[3] = test system: HARA
Method in brief: as §1

[4] = test system: LU99A
Method in brief: as §1

[5] = test system: UMC-11
Method in brief: as §1

[6] = test system: NCI-H838
Method in brief: as §1

[7] = test system: NCI-H2126
Method in brief: as §1

[8] = test system: EPLC-272H
Method in brief: as §1

[9] = test system: NCI-H1651
Method in brief: as §1

[10] = test system: NCI-H1915
Method in brief: as §1

[11] = test system: NCI-H2342
Method in brief: as §1

[12] = test system: NCI-H460
Method in brief: as §1

[13] = test system: HCC-15
Method in brief: as §1

[14] = test system: NCI-H358
Method in brief: as §1

[15] = test system: NCI-H2009
Method in brief: as §1

[16] = test system: NCI-H1993
Method in brief: as §1

[17] = test system: NCI-H650
Method in brief: as §1

[18] = test system: NCI-H2085
Method in brief: as §1

[19] = test system: PC-14
Method in brief: as §1

[20] = test system: ABC-1
Method in brief: as §1

[21] = test system: COR-L23
Method in brief: as §1

[22] = test system: HCC-78
Method in brief: as §1

[23] = test system: LC-2-ad
Method in brief: as §1

Compound Clc1ccc(Nc2nnc(Cc3ccncc3)c3ccccc23)cc1 [Vatalanib] + COc1cc2c(Oc3ccc(NC(=O)C4(C(=O)Nc5ccc(F)cc5)CC4)cc3F)ccnc2cc1OCCCN1CCOCC1 [Foretinib] (partner 0.25 µM) has a relative viability ([1]; first compound 0.1265 µM) of 0.676, a relative viability ([1]; first compound 0.4 µM) of 0.656 and a relative viability ([1]; first compound 1.265 µM) of 1.05. It also gave a relative viability ([1]; first compound 4 µM) of 0.785, a relative viability ([2]; first compound 0.04 µM) of 0.997 and a relative viability ([2]; first compound 0.1265 µM) of 0.857. It also gave a relative viability ([2]; first compound 0.4 µM) of 1.05, a relative viability ([2]; first compound 1.265 µM) of 0.929 and a relative viability ([2]; first compound 4 µM) of 0.9. It also gave a relative viability ([3]; first compound 0.04 µM) of 0.853, a relative viability ([3]; first compound 0.1265 µM) of 0.757 and a relative viability ([3]; first compound 0.4 µM) of 0.807. For the same compound, the relative viability ([3]; first compound 1.265 µM) was 0.92, the relative viability ([3]; first compound 4 µM) was 0.852 and the relative viability ([4]; first compound 0.04 µM) was 0.809. It also gave a relative viability ([4]; first compound 0.1265 µM) of 0.842, a relative viability ([4]; first compound 0.4 µM) of 0.917 and a relative viability ([4]; first compound 1.265 µM) of 0.75. For the same compound, the relative viability ([4]; first compound 4 µM) was 0.848, the relative viability ([5]; first compound 0.04 µM) was 1.12 and the relative viability ([5]; first compound 0.1265 µM) was 0.94. It also gave a relative viability ([5]; first compound 0.4 µM) of 0.916, a relative viability ([5]; first compound 1.265 µM) of 0.94 and a relative viability ([5]; first compound 4 µM) of 1.02. It also gave a relative viability ([6]; first compound 0.04 µM) of 1.11, a relative viability ([6]; first compound 0.1265 µM) of 1.03 and a relative viability ([6]; first compound 0.4 µM) of 1.13. It also gave a relative viability ([6]; first compound 1.265 µM) of 1.04, a relative viability ([6]; first compound 4 µM) of 1.01 and a relative viability ([7]; first compound 0.04 µM) of 1.15. For the same compound, the relative viability ([7]; first compound 0.1265 µM) was 1.23, the relative viability ([7]; first compound 0.4 µM) was 1.25 and the relative viability ([7]; first compound 1.265 µM) was 1.1. It also gave a relative viability ([7]; first compound 4 µM) of 1.12, a relative viability ([8]; first compound 0.04 µM) of 0.645 and a relative viability ([8]; first compound 0.1265 µM) of 0.711. For the same compound, the relative viability ([8]; first compound 0.4 µM) was 0.763, the relative viability ([8]; first compound 1.265 µM) was 0.669 and the relative viability ([8]; first compound 4 µM) was 0.841. It also gave a relative viability ([9]; first compound 0.04 µM) of 0.885, a relative viability ([9]; first compound 0.1265 µM) of 0.768 and a relative viability ([9]; first compound 0.4 µM) of 0.94. It also gave a relative viability ([9]; first compound 1.265 µM) of 0.803, a relative viability ([9]; first compound 4 µM) of 0.817 and a relative viability ([10]; first compound 0.04 µM) of 1.09. The relative viability ([10]; first compound 0.1265 µM) was 1.04, the relative viability ([10]; first compound 0.4 µM) was 1.11 and the relative viability ([10]; first compound 1.265 µM) was 1.05. It also gave a relative viability ([10]; first compound 4 µM) of 1.13, a relative viability ([11]; first compound 0.04 µM) of 1.08 and a relative viability ([11]; first compound 0.1265 µM) of 1.03. It also gave a relative viability ([11]; first compound 0.4 µM) of 1.08, a relative viability ([11]; first compound 1.265 µM) of 1.16 and a relative viability ([11]; first compound 4 µM) of 1.05. The relative viability ([12]; first compound 0.04 µM) was 1.11, the relative viability ([12]; first compound 0.1265 µM) was 0.894 and the relative viability ([12]; first compound 0.4 µM) was 0.93. For the same compound, the relative viability ([12]; first compound 1.265 µM) was 0.934, the relative viability ([12]; first compound 4 µM) was 1.06 and the relative viability ([13]; first compound 0.04 µM) was 1. It also gave a relative viability ([13]; first compound 0.1265 µM) of 1.06, a relative viability ([13]; first compound 0.4 µM) of 1.02 and a relative viability ([13]; first compound 1.265 µM) of 0.996. It also gave a relative viability ([13]; first compound 4 µM) of 1.03, a relative viability ([14]; first compound 0.04 µM) of 1.15 and a relative viability ([14]; first compound 0.1265 µM) of 0.568. It also gave a relative viability ([14]; first compound 0.4 µM) of 0.533, a relative viability ([14]; first compound 1.265 µM) of 0.718 and a relative viability ([14]; first compound 4 µM) of 0.621. For the same compound, the relative viability ([15]; first compound 0.04 µM) was 1.22, the relative viability ([15]; first compound 0.1265 µM) was 1.14 and the relative viability ([15]; first compound 0.4 µM) was 1.24. It also gave a relative viability ([15]; first compound 1.265 µM) of 1.2, a relative viability ([15]; first compound 4 µM) of 1.26 and a relative viability ([16]; first compound 0.04 µM) of 0.739. For the same compound, the relative viability ([16]; first compound 0.1265 µM) was 0.745, the relative viability ([16]; first compound 0.4 µM) was 0.806 and the relative viability ([16]; first compound 1.265 µM) was 0.739. For the same compound, the relative viability ([16]; first compound 4 µM) was 0.75, the relative viability ([17]; first compound 0.04 µM) was 1.08 and the relative viability ([17]; first compound 0.1265 µM) was 1.01. The relative viability ([17]; first compound 1.265 µM) was 0.973, the relative viability ([17]; first compound 4 µM) was 0.978 and the relative viability ([18]; first compound 0.04 µM) was 1.07. The relative viability ([18]; first compound 0.1265 µM) was 0.879, the relative viability ([18]; first compound 0.4 µM) was 0.854 and the relative viability ([18]; first compound 1.265 µM) was 0.996. It also gave a relative viability ([18]; first compound 4 µM) of 0.818, a relative viability ([19]; first compound 0.04 µM) of 0.981 and a relative viability ([19]; first compound 0.1265 µM) of 0.855. It also gave a relative viability ([19]; first compound 0.4 µM) of 0.85, a relative viability ([19]; first compound 1.265 µM) of 0.895 and a relative viability ([19]; first compound 4 µM) of 0.932. The relative viability ([20]; first compound 0.04 µM) was 1.32, the relative viability ([20]; first compound 0.1265 µM) was 1.11 and the relative viability ([20]; first compound 1.265 µM) was 1.18. For the same compound, the relative viability ([20]; first compound 4 µM) was 0.989, the relative viability ([21]; first compound 0.04 µM) was 1.08 and the relative viability ([21]; first compound 0.1265 µM) was 0.827. It also gave a relative viability ([21]; first compound 0.4 µM) of 1.15, a relative viability ([21]; first compound 1.265 µM) of 1.04 and a relative viability ([21]; first compound 4 µM) of 0.92. It also gave a relative viability ([22]; first compound 0.04 µM) of 0.531, a relative viability ([22]; first compound 0.1265 µM) of 0.551 and a relative viability ([22]; first compound 0.4 µM) of 0.535. It also gave a relative viability ([22]; first compound 1.265 µM) of 0.503, a relative viability ([22]; first compound 4 µM) of 0.47 and a relative viability ([23]; first compound 0.04 µM) of 0.999. For the same compound, the relative viability ([23]; first compound 0.1265 µM) was 0.777, the relative viability ([23]; first compound 1.265 µM) was 0.852 and the relative viability ([23]; first compound 4 µM) was 0.87.
